The subject of one data set is 4T1 cells. Type of data set: cell-based, mouse. The settings on record: FIG. 8. The procedure: The cytotoxicity tests are carried out in cell culture in 96-well plates, on the 4T1 cell line. The cells are maintained in a DMEM culture medium supplemented with 10% fetal calf serum (control condition) or placed in the presence of an MTT solution (3-(4,5-dimethylthiazol-2-yl)-2,5-diphenyl tetrazolium bromide) at 1 mg/ml in DMEM medium supplemented with 10% fetal calf serum (100 μl per well). The cells are incubated at 37° C. and 5% CO2 for 4 hours. The reaction is stopped by the addition of 100 μl of a solution containing 10% of SDS and 0.01 M of HCl. The cells are placed in an incubator at 37° C. and 5% CO2 for 2 hours. The absorbance is measured between 570 and 590 nm. The negative control is performed on a well without cells, containing 200 μl of a 1 mg/ml solution of MTT diluted in DMEM culture medium supplemented with 10% fetal calf serum. The average of the measurements obtained is compared with the control wells: (average value of the compounds treated/average value of the controls)*100=% of the average value.
The 4T1 cells are derived from tumors of the mammary gland in mice.
In order to study the cytotoxic effects of althiazide in vitro, we analyze the cell death induced by treatment with althiazide by tetrazolium salt labeling MTT (3-(4,5-dimethylthiazol-2-yl)-2,5-diphenyltetrazolium bromide) on 4T1 cells. The amount of living cells in the well is assayed by spectrometry. The results are compared with those obtained after treatment with the control solution (FIG. 8). In this test, we observe a very low mortality of cells after treatment with althiazide (80% of living cells at the highest dose 100 μM). Cells treated with dasatinib have a much higher mortality rate, at much lower doses (80% live cells at the lowest 10 nM dose and 20% live cells at 100 μM).

Another data set deals with zebrafish embryo. The settings on record: in vivo. The protocol:
The toxicity study is carried out over 72 hours. The embryos are treated at 25 hpf with the doses used for the test of chemical compounds of each of the compounds, in a 96-well plate, in a final volume of 100 μl of the embryonic growth medium. The embryos are incubated 72 h at 28° C. The medium is changed every 24 hours. The survival rate of embryos and the appearance of developmental defects are analyzed daily.
At the same time, we analyzed the toxicity of althiazide after balancing with a solution containing althiazide at concentrations of 1 μM, 10 μM, 100 μM, 1000 μM for 24, 48 and 72 hours. The toxicity study was based on analysis of the percentage viability of the embryos after treatment. At concentrations of 1 μM, 10 μM and 100 μM, althiazide causes no toxicity even after 72 hours of treatment. A 50% toxicity is observed after treatment for 24 hours, the althiazide at the concentration of 1 mM.

From patent US20230137849A1, “USE OF A COMPOUND OF THE DIURETICS CLASS FOR TREATING CANCER” (AZELEAD, priority 2017, published 2023) come the findings set out here.

Like-named read-outs stand apart in the source and are kept apart here.

Regarding `Cc1nc(Nc2ncc(C(=O)Nc3c(C)cccc3Cl)s2)cc(N2CCN(CCO)CC2)n1` [dasatinib], the entries for the “living cells (MTT)” value with 4T1 cells (highest dose 100 μM) and in the data set on 4T1 cells (lowest dose 10 nM) were 20% and 80%, respectively. For the same compound, the “toxicity on the embryo in comparison with althiazide doses” value in the data set on zebrafish embryo is recorded as “very high toxicity”.
